Measurements as given in PubChem BioAssay (NCI).
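Following 48 hours of exposure in 96-well plates, responses at five concentrations were used to interpolate endpoints linearly. The concentration for 50% growth inhibition is given as GI50. At the TGI there is no net growth.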

The molecules below were run on A498 renal (assay: NCI-60 cell line screen, 48 h).

| SMILES | TGI [µM] | GI50 [µM] |
| --- | --- | --- |
| CCOC(=O)c1c(CN2CCCC2)n(-c2ccccc2)c2cc(Br)c(O)cc12 | 30.6 |  |
| O=C1c2cc3c(cc2-c2c1c1ccc(F)cc1c(=O)n2C[C@H](O)[C@@H](O)[C@H](O)CO)OCO3 | 0.262 | 0.12 |
| Nn1c(Nc2ccc(S(=O)(=O)Nc3ncccn3)cc2)nnc(/C=C/c2c(O)ccc3ccccc23)c1=O | 72.4 |  |
| Cc1cc(-c2nc3ccc(F)cc3s2)ccc1NC(=O)[C@H](C)N | 21.7 |  |
| Cc1cc(Nc2ccc(S(=O)(=O)O)c3cc(S(=O)(=O)O)cc(S(=O)(=O)O)c23)c2ccccc2n1 | > 100 |  |
| NS(=O)(=O)c1nnc(NC(=O)Nc2ccc(Cl)c(Cl)c2)s1 | 43.9 |  |
| O=[N+]([O-])c1cc(C=NC23CC4CC(CC(C4)C2)C3)ccc1Cl | > 100 |  |
| CCCCCC1=CC(=O)C1(Cl)Cl | 43.3 |  |
| CC(=O)N(C(=O)CC(=O)N1N=C(c2ccccc2)C(N=Nc2ccccc2[N+](=O)[O-])C1=O)c1ccc(Cl)cc1 (stereo not drawn) | > 10 |  |
| Oc1ccccc1CNCc1nc2ccccc2[nH]1 | > 100 |  |
| COc1ncc(/C=C2\OC(=O)c3ccccc32)c(OC)n1 | > 100 |  |
| CC(=O)Nn1c(=S)[nH]c2ccccc21 | > 100 |  |
| C[C@]12CCC3C4=C(CCC3C1CCC2=O)C(=O)[C@H]1O[C@H]1C4=O (stereo partly drawn) | 31.1 |  |
| CCCCOC(=O)Nc1ccc(S(=O)(=O)Nc2ccccc2Cl)cc1 | 27.8 |  |
| CC(C)c1cc2c(cc1S(=O)(=O)O)[C@@]1(C)CCC[C@@](C)(C(=O)O)C1CC2 (stereo partly drawn) | > 100 |  |
| N#CC(Cc1ccccc1)N(CCC1=CCCCC1)C(c1ccccc1)c1ccccc1 (stereo not drawn) | > 100 |  |
| C/C(=C\CBr)CCC(Br)C(C)(C)Br (stereo not drawn) | > 100 |  |
| [N-]=[N+]=NC(c1ccccc1)(c1ccccc1)c1ccccc1 | 31.9 |  |
| CC(=O)c1c2c(c3ccccc3c1O)O[C@@H]1OCC[C@H]21 | > 100 |  |
| C(=C(c1ccc(OC2CCCCO2)cc1)c1ccc(OC2CCCCO2)cc1)c1ccccc1 (stereo not drawn) | 2.64 |  |
| C[C@]12CC[C@H](O)CC1=CC[C@@H]1[C@@H]2CC[C@]2(C)C(=N/N)/C(=N\O)C[C@@H]12 | 30.8 |  |
| CC(=O)Oc1cccc2c1C(=O)CCCC2 | > 100 |  |

| SMILES | TGI [µM] | GI50 [µM] |
| --- | --- | --- |
| CCN(CC)C(=S)N/N=C/c1cc([N+](=O)[O-])ccc1O | 7.47 |  |
| Cc1ccc(NC(=O)c2ccc(OP(=O)(O)Nc3ccc(C)cc3)cc2)cc1 | > 100 |  |
| Cc1ccnc(NS(=O)(=O)c2ccc(N=[N+]=[N-])cc2)n1 | > 100 |  |
| Cc1ccccc1C(=N)c1ccccc1Cc1cccc2ccccc12 | 95 |  |
| CCC(=O)NC(Nc1cc(C)on1)(C(F)(F)F)C(F)(F)F | > 100 |  |
| COc1ccc(-c2[nH]c3c4c(nc5c(c24)C(=O)CC(C)(C)C5)CC(C)(C)C3)cc1 | > 100 |  |
| CCC(=O)NCC1CCCN2CCCCC12 (stereo not drawn) | > 100 |  |
| Cc1ccccc1OC(C)C(=O)NN1C(=O)CSC1c1ccccc1 (stereo not drawn) | > 100 |  |
| Cc1ccc(N(Cc2ccccc2)Cc2ccccc2)cc1 | > 100 |  |
| Nc1nc(-c2ccccc2)nc2oc(-c3cccs3)nc12 | > 100 |  |
| CC(C)=CCC[C@@H](C)c1c(O)c(O)c(C)c2nccnc12 | > 86.1 |  |
| O=c1[nH]c(=S)[nH]c2c1C(c1ccc([N+](=O)[O-])cc1)c1c([nH]c(=S)[nH]c1=O)O2 | > 100 |  |
| Cn1c(=O)c2c(nc3n2CC(C(=O)O)N3)n(C)c1=O (stereo not drawn) | > 100 |  |
| Cc1ccc(-c2cc(-c3ccco3)c(C#N)c(=S)n2C2OC(CO)C(O)C(O)C2O)cc1 (stereo not drawn) | > 100 |  |
| Cc1oc2c(cc(O)c3cc(O)ccc32)c2cccc1-2 | > 100 |  |
| NC(N)=Nc1ccc(CC(N)NCC(=O)O)cc1 (stereo not drawn) | > 25 |  |
| COC(=O)C1=C(C(=O)OC)SC(=C2SCSC3=C2SC(C(=O)OC)=C(C(=O)OC)C32SC3=C(CCCC3)S2)S1 | > 100 |  |
| COc1nncc2[nH]c(-c3ccccc3)cc12 | > 100 |  |
| COc1ccc(-n2c(C)nc3ccc(NC(=S)Nc4ccccc4)cc3c2=O)cc1 | > 100 |  |
| O=S(=O)(c1ccccc1)c1cccc2c1NCCC2 | > 100 |  |
| COP(=O)(OC)C1=c2c(C)noc2=C2C=COC2C1=O (stereo not drawn) | > 100 |  |

These molecules were tested on BT-549 breast (assay: NCI-60 cell line screen, 48 h).

| SMILES | TGI [µM] | GI50 [µM] |
| --- | --- | --- |
| CCOC(=O)c1c(CN2CCCC2)n(-c2ccccc2)c2cc(Br)c(O)cc12 | 55.8 |  |
| O=C1c2cc3c(cc2-c2c1c1ccc(F)cc1c(=O)n2C[C@H](O)[C@@H](O)[C@H](O)CO)OCO3 | 0.492 | 0.0687 |
| Nn1c(Nc2ccc(S(=O)(=O)Nc3ncccn3)cc2)nnc(/C=C/c2c(O)ccc3ccccc23)c1=O | 60 |  |
| Cc1cc(-c2nc3ccc(F)cc3s2)ccc1NC(=O)[C@H](C)N | 26.8 |  |
| Cc1cc(Nc2ccc(S(=O)(=O)O)c3cc(S(=O)(=O)O)cc(S(=O)(=O)O)c23)c2ccccc2n1 | > 100 |  |
| NS(=O)(=O)c1nnc(NC(=O)Nc2ccc(Cl)c(Cl)c2)s1 | 52.2 |  |
| O=[N+]([O-])c1cc(C=NC23CC4CC(CC(C4)C2)C3)ccc1Cl | 45.3 |  |
| CCCCCC1=CC(=O)C1(Cl)Cl | 56.8 |  |
